Source: patent publication US20040121316A1 (priority 2002, published 2004)

What was measured:
mutant HIV-1 I84V/L90M = test: Resistance Evaluation, I84V/L90M fold change; assay type: cell-based
[1] = tested on: wild-type HIV-1 strain IIIB; test: microbe, parasite or virus in culture; assay type: cell-based; design: scale not given here; conditions: for EC50: Human immunodeficiency virus 1, IIIB
[2] = EC50 of mutant I84V/L90M relative to wild type, class symbols

Compound	EC50 [1] [µM]	I84V/L90M fold change (mutant HIV-1 I84V/L90M; mutant I84V/L90M vs wild type)	also measured
CCOP(=O)(CN1CC=C(CC(NC(=O)OC2COC3OCCC23)C(O)CN(CC(C)C)S(=O)(=O)c2ccc(OC)cc2)CC1)OCC (stereo not drawn)	–	–	I84V/L90M fold change (mutant HIV-1 I84V/L90M; [2]): + (>3 to ≦10)
CCOP(=O)(CCC1=CCN(CC(NC(=O)OC2COC3OCCC23)C(O)CN(CC(C)C)S(=O)(=O)c2ccc(OC)cc2)CC1)OCC (stereo not drawn)	–	–	I84V/L90M fold change (mutant HIV-1 I84V/L90M; [2]): + (>3 to ≦10)
CCOP(=O)(Cc1ccc(NCC(NC(=O)OC2COC3OCCC23)C(O)CN(CC(C)C)S(=O)(=O)c2ccc(OC)cc2)cc1)OCC (stereo not drawn)	–	–	I84V/L90M fold change (mutant HIV-1 I84V/L90M; [2]): + (>3 to ≦10)
CCOP(=O)(Cc1ccc(N(C)CC(NC(=O)OC2COC3OCCC23)C(O)CN(CC(C)C)S(=O)(=O)c2ccc(OC)cc2)cc1)OCC (stereo not drawn)	–	–	I84V/L90M fold change (mutant HIV-1 I84V/L90M; [2]): + (>3 to ≦10)
CCOP(=O)(Cc1ccc(CN(C)CC(NC(=O)OC2COC3OCCC23)C(O)CN(CC(C)C)S(=O)(=O)c2ccc(OC)cc2)cc1)OCC (stereo not drawn)	–	–	I84V/L90M fold change (mutant HIV-1 I84V/L90M; [2]): − (≦3)
CCOP(=O)(Cc1ccc2c(c1)CCN(CC(NC(=O)OC1COC3OCCC13)C(O)CN(CC(C)C)S(=O)(=O)c1ccc(OC)cc1)C2)OCC (stereo not drawn)	–	–	I84V/L90M fold change (mutant HIV-1 I84V/L90M; [2]): + (>3 to ≦10)
CCOP(=O)(COc1ccc2c(c1)CN(CC(NC(=O)OC1COC3OCCC13)C(O)CN(CC(C)C)S(=O)(=O)c1ccc(OC)cc1)C2)OCC (stereo not drawn)	> 5	–	–
CCOP(=O)(CNc1ccc(CC(NC(=O)OC2COC3OCCC23)C(O)CN(CC(C)C)S(=O)(=O)c2ccc(OC)cc2)cc1)OCC (stereo not drawn)	–	–	I84V/L90M fold change (mutant HIV-1 I84V/L90M; [2]): − (≦3)
COc1ccc(S(=O)(=O)N(CC(C)C)CC(O)C(Cc2ccc(NCP(=O)(OCc3ccccc3)OCc3ccccc3)cc2)NC(=O)OC2COC3OCCC23)cc1 (stereo not drawn)	–	–	I84V/L90M fold change (mutant HIV-1 I84V/L90M; [2]): − (≦3)
COc1ccc(S(=O)(=O)N(CC(C)C)CC(O)C(Cc2ccc(C)cc2)NC(=O)OC2COC3OCCC23)cc1 (stereo not drawn)	–	+ (>3 to ≦10)	–
COc1ccc(S(=O)(=O)N(CC(C)C)CC(O)C(Cc2ccc(OCc3ccccc3)cc2)NC(=O)OC2COC3OCCC23)cc1 (stereo not drawn)	–	− (≦3)	–
COc1ccc(S(=O)(=O)N(CCN2CCOCC2)CC(O)C(Cc2ccc(OCP(=O)(OCc3ccccc3)OCc3ccccc3)cc2)NC(=O)OC2COC3OCCC23)cc1 (stereo not drawn)	–	+ (>3 to ≦10)	–
COc1ccc(S(=O)(=O)N(CC2CCNCC2)CC(O)C(Cc2ccc(O)cc2)NC(=O)OC2COC3OCCC23)cc1 (stereo not drawn)	> 5	–	–
COc1ccc(S(=O)(=O)N(CC2CCN(C=O)CC2)CC(O)C(Cc2ccc(OCP(=O)(O)O)cc2)NC(=O)OC2COC3OCCC23)cc1 (stereo not drawn)	> 5	–	–
CCOP(=O)(COc1ccc(CC(NC(=O)OC2COC3OCCC23)C(O)CN(CC2CCN(C=O)CC2)S(=O)(=O)c2ccc(OC)cc2)cc1)OCC (stereo not drawn)	> 5	–	–
CCOP(=O)(COc1ccc(CC(NC(=O)OC2COC3OCCC23)C(O)CN(CC2CCN(C)CC2)S(=O)(=O)c2ccc(OC)cc2)cc1)OCC (stereo not drawn)	> 5	–	–
Cc1ccc(C(=O)NC(Cc2ccc(OCP(=O)(OCc3ccccc3)OCc3ccccc3)cc2)C(O)CN(CC(C)C)S(=O)(=O)c2ccc(N)cc2)cc1O (stereo not drawn)	–	+ (>3 to ≦10)	–
CCOP(=O)(COc1ccc(CC(NC(=O)OC2COC3OCCC23)C(O)CN(CC(C)C)S(=O)(=O)c2ccc([N+](=O)[O-])cc2)cc1)OCC (stereo not drawn)	–	− (≦3)	–
CCNc1ccc(S(=O)(=O)N(CC(C)C)CC(O)C(Cc2ccc(OCP(=O)(OCC)OCC)cc2)NC(=O)OC2COC3OCCC23)cc1 (stereo not drawn)	–	− (≦3)	–
CC(C)CN(CC(O)C(Cc1ccc(OCP(=O)(OCc2ccccc2)OCc2ccccc2)cc1)NC(=O)OC1COC2OCCC12)S(=O)(=O)c1ccc(N)cc1 (stereo not drawn)	–	− (≦3)	–
CCOP(=O)(COc1ccc(CC(NC(=O)OC2COC3OCCC23)C(O)CN(CC(C)C)S(=O)(=O)c2cccc(N)c2)cc1)OCC (stereo not drawn)	–	− (≦3)	–
CC(C)CN(CC(O)C(Cc1ccc(OCP(=O)(OCc2ccccc2)OCc2ccccc2)cc1)NC(=O)OC1COC2OCCC12)S(=O)(=O)c1cccc(N)c1 (stereo not drawn)	–	− (≦3)	–
CC(C)CN(CC(O)C(Cc1ccc(OCP(=O)(O)O)cc1)NC(=O)OC1COC2OCCC12)S(=O)(=O)c1ccccc1 (stereo not drawn)	> 5	–	–
CC(C)CN(CC(O)C(Cc1ccc(OCP(=O)(O)O)cc1)NC(=O)OC1COC2OCCC12)S(=O)(=O)c1ccc(F)cc1 (stereo not drawn)	0.5 to 5	–	–
CC(C)CN(CC(O)C(Cc1ccc(OCP(=O)(O)O)cc1)NC(=O)OC1COC2OCCC12)S(=O)(=O)c1ccc(C(F)(F)F)cc1 (stereo not drawn)	0.5 to 5	–	–
CC(C)CN(CC(O)C(Cc1ccc(OCP(=O)(O)O)cc1)NC(=O)OC1COC2OCCC12)S(=O)(=O)c1ccc(OC(F)(F)F)cc1 (stereo not drawn)	0.5 to 5	–	–
CCOP(=O)(COc1ccc(C[C@H](NC(=O)O[C@H]2CO[C@H]3OCC[C@H]32)[C@H](O)CN(CC(C)C)S(=O)(=O)c2ccc([N+](=O)[O-])cc2)cc1)OCC	–	–	EC50 (nM) [1]: + +
